Test results from US20240415845A1, “Compositions of Iboga Alkaloids and Methods of Treatment” (priority 2022, published 2024).

Tested on: special operations veterans with combat and/or blast exposure
Test: MRI-based predicted brain age (machine learning model)
Assay type: in vivo, human
Conditions: for brain age estimate: baseline 40.89 years; for Brain age, Cohen's d / Brain age, Mean Difference: N 24
Text: In another aspect, a method for slowing or reversing brain aging in a subject is provided. In an embodiment, the subject is a person a healthy individual or is a person with TBI or with TBI and PTSD or a person at risk of one or both of TBI and PTSD. The method comprises treating the subject with ibogaine, as described herein. Neuroimaging data can be used to predict chronological age in healthy individuals, using machine learning. Neuroimaging-derived age predictions have been explored in the context of different brain diseases (Cole, et al., NeuroImage, 163:115-124 (2017): Cole, et al., Trends in Neurosciences, 40(12):681 (2017))). By training models on healthy individuals, brain-based predictions of age can be made in independent clinical samples. If ‘brain-predicted age’ is greater than an individual's chronological age, this is thought to reflect some aberrant accumulation of age-related changes to the brain (Id.). […] A predictive model of normal ageing defined using machine learning in healthy individuals, based on magnetic resonance imaging-derived estimates of gray matter and white matter (Id.) was applied to the MRI images from the subjects enrolled in the study of Example 1. […] There was a significant reversal of brain age from baseline to one month after treatment. The mean decrease in brain age was 1.3 years (corrected p=0.03).
At baseline, the brain age estimate for the 24 subjects was 40.89 years. […] The average decrease in brain age from baseline one month after treatment was 1.4 years.

[1] = contrast 1 wk post − 1 mo. post
[2] = contrast immediate post (~1 wk) − baseline
[3] = one month after treatment, 24 subjects

CCC1CC2CC3c4[nH]c5ccc(OC)cc5c4CCN(C2)C13 (stereo not shown) [ibogaine, Ibogaine]
Brain age, contrast Estimate (Baseline & 1 wk. vs 1 mo., weights .5-.5-1): 1.220 years | Brain age, contrast Estimate (Baseline vs. 1 wk and 1 mo., weights 1-.5-.5): 0.892 years | brain age estimate (about one week after treatment, 24 subjects): 40.52 years | mean decrease in predicted brain age (baseline to one month after treatment, corrected p=0.03 (FIG. 19A)): 1.3 years | Brain age, Cohen's d (contrast 1-mo. post − baseline): −0.6137 | Brain age, Mean Difference (contrast 1-mo. post − baseline): −1.408 Years | Brain age, Cohen's d [1]: −0.4729 | Brain age, Mean Difference [1]: −1.031 Years | Brain age, Cohen's d [2]: −0.2114 | Brain age, Mean Difference [2]: −0.3764 Years | average decrease in brain age from baseline [3]: 1.4 years | brain age estimate [3]: 39.48 years | estimated brain age compared to accelerated intermittent theta burst stimulation (aiTBS) (one-month post treatment (FIG. 19D)): reducing in estimated brain age
